Tests used:
[1] = system: NLRP3 inflammasome (IL-1β production in THP-1 cells); assay: IL-1β TR-FRET Assay (percentage of inhibition at 300 nM, 6 μM or 10 μM); format: cell-based, human; conditions: LPS priming, ATP activation; for inhibition at 0.3 µM / inhibition at 6 µM: Homo sapiens; for inhibition at 0.3 µM: THP-1, 300 nM, read-out: IL-1β inhibitory rate at 300 nM (%); for inhibition at 6 µM: THP-1, 6 μM, read-out: IL-1β inhibitory rate at 6 μM (%); for IL-1β inhibitory rate at 300 nM (%): 0.3 µM
Procedure, shortened: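 Percent inhibition of IL-1β used DMSO wells as 0% and 3 μM MCC-950 wells as full inhibition, with supernatant read by HTRF. Beforehand, IFN-γ-differentiated (25 ng/mL, 24 h), LPS-primed (50 ng/mL, 24 h) THP-1 cells received compound 30 min before inflammasome activation by 20 mM ATP for 2 h.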

[2] = system: TNF-α (NF-κB pathway, THP-1 cells); assay: TNF-α Assay (IC50); format: cell-based, human; conditions: 600 ng/mL LPS, 3 hours
Description: TNF-α Assay (Reported as IC50)
Monocytic THP-1 cells (ATCC: TIB-202) were maintained in accordance with the provider's instructions in RPMI media (Life Technologies, Cat #A10491-01); RPMI was supplemented with 10% heat inactivated fetal bovine serum (Hyclone Cat #SH30396.03). The cells were differentiated into macrophages by the addition of 25 ng/mL IFN-7 for 24 hours at 37° C./5% CO2. Media was exchanged with fresh media with no FBS. The cells were plated at 40,000 cells per well in 384-well flat-bottom cell culture plates (Costar 3764) containing compounds (added in 1:1000) in a 1:3.16 serial dilution series in DMSO and were incubated for 30 minutes at 37° C./5% CO2. The NF-κB pathway was activated with the addition of 600 ng/mL LPS and the cells were incubated for 3 hours at 37° C./5% CO2. At the end of the incubation period, supernatant ([…]) was removed, and TNF-alpha were monitored using an ELISA (Human TNF-α ELISA, R&D systems, Cat #DY210) according to the manufacturer's instructions. 100% inhibition is determined with positive control, TPCA-1.
The IC50 values in the TNF-α assay were calculated from a plot of percentage of inhibition versus the inhibitor concentration by a logistics curve fit according to: Y=[Bottom+(Top−Bottom)]/(1+10^[(Log IC50−X)·Hill Slope], where Y was the […] at the inhibitor concentration, X, “Bottom” was the lowest inhibition value, i.e., 0%, “Top” was the maximum inhibition value, i.e., 100%, and the “Hill Slope” described the slope of the sigmoidal curve between the “Bottom” and “Top” values. The curve fitting was conducted with internally developed software.

SMILES | IC50 ([2]; Homo sapiens) [µM] | IC50 [2] [µM] | inhibition at 0.3 µM [1] [%] | inhibition at 6 µM [1] [%] | IL-1β inhibitory rate at 300 nM (%) [1] [%]
CO[C@@H]1COCC[C@@H]1c1nc2nn(-c3c(C)cc(C4CC4)cc3C)cc2c(=O)[nH]1 (racemic) [Example 310, racemic mixture of 1,5-anhydro-3-[2-(4-cyclopropyl-2,6-dimethylphenyl)-4-oxo-4,5-dihydro-2H-pyrazolo[3,4-d]pyrimidin-6-yl]-2,3-dideoxy-4-O-methyl-D-erythro-pentitol and 1,5-anhydro-3-[2-(4-cyclopropyl-2,6-dimethylphenyl)-4-oxo-4,5-dihydro-2H-pyrazolo[3,4-d]pyrimidin-6-yl]-3,4-dideoxy-2-O-methyl-D-erythro-pentitol] | > 30 | – | – | 99 | –
CO[C@H]1COCC[C@@H]1c1nc2nn(-c3c(C)cc(C4CC4)cc3C)cc2c(=O)[nH]1 (racemic) [Example 311, racemic mixture of 1,5-anhydro-3-[2-(4-cyclopropyl-2,6-dimethylphenyl)-4-oxo-4,5-dihydro-2H-pyrazolo[3,4-d]pyrimidin-6-yl]-2,3-dideoxy-4-O-methyl-L-threo-pentitol and 1,5-anhydro-3-[2-(4-cyclopropyl-2,6-dimethylphenyl)-4-oxo-4,5-dihydro-2H-pyrazolo[3,4-d]pyrimidin-6-yl]-2,3-dideoxy-4-O-methyl-D-threo-pentitol] | > 30 | – | – | 102 | –
Cc1cc(C2CC2)cc(C(F)F)c1-n1cc2c(=O)[nH]c(C3COCCO3)nc2n1 (racemic) [Example 316, 2-[4-cyclopropyl-2-(difluoromethyl)-6-methylphenyl]-6-(1,4-dioxan-2-yl)-2,5-dihydro-4H-pyrazolo[3,4-d]pyrimidin-4-one] | > 30 | – | – | 104 | –
Cc1cc(C2CC2)cc(C)c1-n1cc2c(=O)[nH]c(C3CCCO3)nc2n1 (single isomer, unassigned) [Example 227, 2-(4-cyclopropyl-2,6-dimethylphenyl)-6-[(2R)-oxolan-2-yl]-2,5-dihydro-4H-pyrazolo[3,4-d]pyrimidin-4-one or 2-(4-cyclopropyl-2,6-dimethylphenyl)-6-[(2S)-oxolan-2-yl]-2,5-dihydro-4H-pyrazolo[3,4-d]pyrimidin-4-one (HPLC Method A: tR1)] | > 30 | – | – | – | 100
Cc1cc(C2CC2)cc(C)c1-n1cc2c(=O)[nH]c(C3CCCO3)nc2n1 (single isomer, unassigned) [Example 228, 2-(4-cyclopropyl-2,6-dimethylphenyl)-6-[(2S)-oxolan-2-yl]-2,5-dihydro-4H-pyrazolo[3,4-d]pyrimidin-4-one or 2-(4-cyclopropyl-2,6-dimethylphenyl)-6-[(2R)-oxolan-2-yl]-2,5-dihydro-4H-pyrazolo[3,4-d]pyrimidin-4-one (HPLC Method A: tR2)] | – | > 30 | – | – | 79
O=c1[nH]c([C@H]2COCCO2)nc2nn(-c3c(F)cc(C4CC4)cc3C(F)F)cc12 (single isomer, unassigned) [Example 312, 2-[4-cyclopropyl-2-(difluoromethyl)-6-fluorophenyl]-6-[(2R)-1,4-dioxan-2-yl]-2,5-dihydro-4H-pyrazolo[3,4-d]pyrimidin-4-one or 2-[4-cyclopropyl-2-(difluoromethyl)-6-fluorophenyl]-6-[(2S)-1,4-dioxan-2-yl]-2,5-dihydro-4H-pyrazolo [3,4-d]pyrimidin-4-one] | > 30 | – | – | 104 | –
O=c1[nH]c([C@@H]2COCCO2)nc2nn(-c3c(F)cc(C4CC4)cc3C(F)F)cc12 (single isomer, unassigned) [Example 313, 2-[4-cyclopropyl-2-(difluoromethyl)-6-fluorophenyl]-6-[(2S)-1,4-dioxan-2-yl]-2,5-dihydro-4H-pyrazolo[3,4-d]pyrimidin-4-one or 2-[4-cyclopropyl-2-(difluoromethyl)-6-fluorophenyl]-6-[(2R)-1,4-dioxan-2-yl]-2,5-dihydro-4H-pyrazolo[3,4-d]pyrimidin-4-one] | > 30 | – | – | 104 | –

Second part, led by results:

IC50 ([2]; Homo sapiens) [µM] | IC50 [2] [µM] | SMILES | inhibition at 0.3 µM [1] [%] | inhibition at 6 µM [1] [%] | IL-1β inhibitory rate at 300 nM (%) [1] [%]
> 30 | – | CCOc1nc2nn(-c3c(F)cc(C4CC4)cc3C(O)C(F)(F)F)cc2c(=O)[nH]1 (racemic) [Example 192, 2-[4-cyclopropyl-2-fluoro-6-(2,2,2-trifluoro-1-hydroxyethyl)phenyl]-6-ethoxy-2,5-dihydro-4H-pyrazolo[3,4-d]pyrimidin-4-one] | 95 | – | –
> 30 | – | CO[C@@H]1CC[C@H]1c1nc2nn(-c3c(C)cc(C4CC4)cc3C)cc2c(=O)[nH]1 (racemic) [Example 253, racemic mixture of 2-(4-cyclopropyl-2,6-dimethylphenyl)-6-[(1R,2S)-2-methoxycyclobutyl]-2,5-dihydro-4H-pyrazolo[3,4-d]pyrimidin-4-one and 2-(4-cyclopropyl-2,6-dimethylphenyl)-6-[(1S,2R)-2-methoxycyclobutyl]-2,5-dihydro-4H-pyrazolo[3,4-d]pyrimidin-4-one] | – | 95 | –
> 30 | – | CO[C@@H]1C[C@H]1c1nc2nn(-c3c(C)cc(C4CC4)cc3C)cc2c(=O)[nH]1 (racemic) [Example 265, racemic mixture of 2-(4-cyclopropyl-2,6-dimethylphenyl)-6-[(1R,2S)-2-methoxycyclopropyl]-2,5-dihydro-4H-pyrazolo[3,4-d]pyrimidin-4-one and 2-(4-cyclopropyl-2,6-dimethylphenyl)-6-[(1S,2R)-2-methoxycyclopropyl]-2,5-dihydro-4H-pyrazolo[3,4-d]pyrimidin-4-one] | – | 95 | –
> 30 | – | CCOc1nc2nn(-c3c(C)cc(C)cc3O)cc2c(=O)[nH]1 [Example 1, 6-ethoxy-2-(2-hydroxy-4,6-dimethylphenyl)-2,5-dihydro-4H-pyrazolo[3,4-d]pyrimidin-4-one] | 100 | – | –
> 30 | – | Cc1cc(C)c(-n2cc3c(=O)[nH]c(-c4ccncn4)nc3n2)c(O)c1 [Example 2, 2-(2-hydroxy-4,6-dimethylphenyl)-6-(pyrimidin-4-yl)-2,5-dihydro-4H-pyrazolo[3,4-d]pyrimidin-4-one] | 100 | – | –
> 30 | – | COc1nc2nn(-c3c(C)cc(C)cc3O)cc2c(=O)[nH]1 [Example 3, 2-(2-hydroxy-4,6-dimethylphenyl)-6-methoxy-2,5-dihydro-4H-pyrazolo[3,4-d]pyrimidin-4-one] | 94 | – | –
> 30 | – | CCCOc1nc2nn(-c3c(C)cc(C)cc3O)cc2c(=O)[nH]1 [Example 4, 2-(2-hydroxy-4,6-dimethylphenyl)-6-propoxy-2,5-dihydro-4H-pyrazolo[3,4-d]pyrimidin-4-one] | 92 | – | –
> 30 | – | Cc1cc(C)c(-n2cc3c(=O)[nH]c(-c4ccccc4)nc3n2)c(O)c1 [Example 5, 2-(2-hydroxy-4,6-dimethylphenyl)-6-phenyl-2,5-dihydro-4H-pyrazolo[3,4-d]pyrimidin-4-one] | 99 | – | –
> 30 | – | Cc1cc(C)c(-n2cc3c(=O)[nH]c(C4CC4)nc3n2)c(O)c1 [Example 6, 6-cyclopropyl-2-(2-hydroxy-4,6-dimethylphenyl)-2,5-dihydro-4H-pyrazolo[3,4-d]pyrimidin-4-one] | 98 | – | –
> 30 | – | Cc1cc(C)c(-n2cc3c(=O)[nH]c(OC(C)C)nc3n2)c(O)c1 [Example 7, 2-(2-hydroxy-4,6-dimethylphenyl)-6-[(propan-2-yl)oxy]-2,5-dihydro-4H-pyrazolo[3,4-d]pyrimidin-4-one] | 99 | – | –
